The source of these data is patent US11787790B2, “Benzimidazole derivative having fluorine-containing substituent, preparation and application thereof” (YUNBAIYAO ZHENGWU SCIENCE AND TECHNOLOGY (SHANGHAI) CO., …, priority 2020, dated 2023).

In data set [1] the test system is HCT 116 (human colon cancer cells). Briefly: CCK-8 anti-proliferation assay, HCT 116 cells. Type of data set: cell-based. To be noted: CCK-8, 72 hours incubation, read-out: HCT116 cell IC50. How it is done:
(§1) The anti-proliferation activities of compounds 1-11 to U87MG cells (human malignant glioma cells, ATCC 5018014), NCI-H1975 cells (human non-small cell lung adenocarcinoma cells, ATCC 57849016), A549 cells (human non-small cell lung cancer cells, ATCC 7503618), HCT 116 (human colon cancer cells, ATCC 4587576), and MCF-7 (human breast cancer cells, ATCC 5105360) were verified by using a CCK-8 method.
(§2) A sample stock solution with a concentration of 20 μM was prepared first. The stock solution was sequentially diluted to obtain 10 samples with concentrations of 20000 nM, 4000 nM, 800 nM, 160 nM, 32 nM, 6.4 nM, 1.28 nM, 0.256 nM, 0.0512 nM, and 0.01024 nM, respectively.
(§3) 50 μL of cell suspension with density of 2*10^4 cells/mL was prepared in 96-well plates followed by pre-culturing in the incubator for 24 hours (37° C., 5% CO2). 50 μL of afore-mentioned sample solution was added into each well. After incubated for 72 hours, 10 μl of CCK-8 solution was added into each well, and then further incubated for additional 2 hours.

Data set [2] in a line: Determination of half-lethal dose (LD50) in mice. To be noted: both sexes, mouse, in vivo, Kunming mice, gastric administration, Bliss calculation method. How it is done:
The SPF-grade Kunming mice, belonging to the outbred stock and weighing 20±2 g, were selected (a ratio of the males to the females was 1:1). The dosage range of each compound was explored through pre-experiments. After that, formal tests were carried out. In the range of 0-100% of the lethal dose obtained by the pre-experiments, five doses were selected to increase or decrease according to the isobaric series to allow the mortality of one half of the groups to be 50% or above, and the other half to be 50% or less. After animal grouping and dosage calculation were completed, gastric administration was performed according to the group. The time from the administration to the beginning of the occurrence of toxic reaction, the poisoning phenomenon and the occurrence sequence thereof, the time of the first occurrence of death, the time of death concentration, and the time of the last occurrence of death were recorded. The number of deaths in each group was recorded day by day.

The subject of data set [3] is A549 cells (human non-small cell lung cancer cells). Description: CCK-8 anti-proliferation assay, A549 cells. It counts as cell-based. To be noted: CCK-8, 72 hours incubation. How it is done: as §1, §2, §3
The test system of data set [4] is U87MG cells (human malignant glioma cells). Briefly: CCK-8 anti-proliferation assay, U87MG cells. To be noted: U-87 MG, CCK-8, 72 hours incubation, read-out: U87MG cell IC50. Type of data set: cell-based. As for the experimental part: as §1, §2, §3
Data set [5] relates to MCF-7 (human breast cancer cells). Briefly: CCK-8 anti-proliferation assay, MCF-7 cells. Conditions: MCF7, CCK-8, 72 hours incubation, read-out: MCF-7 cell IC50. Type of data set: cell-based. How it is done:
as §1, §2, §3

Data set [6] relates to NCI-H1975 cells (human non-small cell lung adenocarcinoma cells). Description: CCK-8 anti-proliferation assay, NCI-H1975 cells. To be noted: CCK-8, 72 hours incubation. It counts as cell-based. As for the experimental part: as §1, §2, §3
The conditions of data set [7]: in vivo; cited from earlier work.
For data set [8] the following is noted: oral administrated; cited from earlier work.

Consider `N#CCCNc1nonc1-c1nc2c(O)cccc2n1CC(F)(F)c1ccc(N)cc1` [Compound 2], for which the IC50 amounted to 28.3 nM in data set [1]; 18.2 nM in data set [3]; 22.4 nM in data set [4]; 17.4 nM in data set [5]; 31.2 nM in data set [6]. In data set [2] (oral), the LD50 was 245 mg/kg.
As to `N#CCCNc1nonc1-c1nc2ccccc2n1C(F)(F)c1ccc(N)cc1` [Compound 9], the IC50 worked out at 28.5 nM in data set [1]; 28.7 nM in data set [3]; 23.9 nM in data set [4]; 32.8 nM in data set [5]; 19.8 nM in data set [6]. Further, in data set [2] (oral), the LD50 is 305 mg/kg.
As to `N#CCCNc1nonc1-c1nc2c(Cl)cccc2n1CC(F)(F)c1ccc(N)cc1` [Compound 4], the IC50 in data set [1] was determined as 12.1 nM; in data set [3] it was 12.9 nM; in data set [4] it was 27.3 nM; in data set [5], 21.7 nM; in data set [6], 14.9 nM. The LD50 in data set [2] (oral) was 262 mg/kg.
With `N#CCCNc1nonc1-c1nc2cc(C(F)(F)F)ccc2n1CC(F)(F)c1ccc(N)cc1` [Compound 6], the concentration for half-maximal inhibition (IC50) in data set [1] turned out to be 17.2 nM; in data set [3], 14.7 nM; in data set [4], 34.2 nM; in data set [5], 13.2 nM; in data set [6] it was 11.9 nM. The LD50 in data set [2] (oral) was 254 mg/kg.
As for `Cn1nnc2c(C(N)=O)ncn2c1=O` [Temozolomide], the “crossing the blood-brain barrier” value in data set [7] was “can cross the blood-brain barrier”. For the same molecule, in data set [8], the bioavailability is recorded as ~100%.
Turning to `N#CCCNc1nonc1-c1nc2cc(Cl)ccc2n1CC(F)(F)c1ccc(N)cc1` [Compound 5], the IC50 in data set [1] was 35.8 nM; in data set [3], 13.2 nM; in data set [4], 15.7 nM; in data set [5], 16.9 nM; in data set [6], 27.4 nM. The LD50 in data set [2] (oral) was 264 mg/kg.
As to `N#CCCNc1nonc1-c1nc2ccccc2n1CC(F)c1ccc(N)cc1` (stereo not drawn) [Compound 8, 3-[(4-{1-[2-(4-aminophenyl)-2-fluoroethyl]-1H-benzimidazol-2-yl}-1,2,5-oxadiazol-3-yl)amino] propionitrile], the IC50 came out at 24.4 nM in data set [1]; 33.7 nM in data set [3]; 15.6 nM in data set [4]; 22.8 nM in data set [5]; 17.5 nM in data set [6]. Further, in data set [2] (oral), the LD50 was 291 mg/kg.
For `N#CCCNc1nonc1-c1nc2ccccc2n1CCC(F)(F)c1ccc(N)cc1` [Compound 10], the IC50 came out at 38.7 nM in data set [1]; 41.5 nM in data set [3]; 41.2 nM in data set [4]; 38.5 nM in data set [5]; 34.3 nM in data set [6]. Besides, the LD50 in data set [2] (oral) is 323 mg/kg.
Consider `N#CCCNc1nonc1-c1nc2ccccc2n1CC(=O)c1ccc(N)cc1` [Compound 11, 3-{[4-(1-(4-aminoacetophenone)-benzimidazol-2-yl)-1,2,5-oxadiazol-3-yl]amino}propionitrile, reference compound], for which the IC50 is 52.6 nM in data set [1]; 42.4 nM in data set [3]; 51.2 nM in data set [4]; 39.2 nM in data set [5]; 42.8 nM in data set [6]. In addition, in data set [2], the LD50 was 153 mg/kg. Also, in data set [7], the “crossing the blood-brain barrier” value is “capable of crossing the blood-brain barrier”.
For the molecule `N#CCCNc1nonc1-c1nc2ccccc2n1CC(F)(F)c1ccc(N)cc1` [Compound 1, 3-[(4-{1-[2-(4-aminophenyl)-2,2-difluoroethyl]-1H-benzimidazol-2-yl}-1,2,5-oxadiazol-3-yl)amino] propionitrile], the IC50 in data set [1] was found to be 19.7 nM; in data set [3], 29 nM; in data set [4], 31.3 nM; in data set [5], 33 nM; in data set [6] it was 19.4 nM. For the same molecule, in data set [2] (oral), the LD50 is 267 mg/kg.
Consider `Cc1ccc2c(c1)nc(-c1nonc1NCCC#N)n2CC(F)(F)c1ccc(N)cc1` [Compound 7], for which the IC50 came to 13.7 nM in data set [1]; 13.9 nM in data set [3]; 12.5 nM in data set [4]; 25.7 nM in data set [5]; 32.4 nM in data set [6]. Further, the LD50 in data set [2] (oral) is 239 mg/kg.
On to `N#CCCNc1nonc1-c1nc2cc(O)ccc2n1CC(F)(F)c1ccc(N)cc1` [Compound 3], for which the IC50 came to 13.6 nM in data set [1]; 26.8 nM in data set [3]; 13.2 nM in data set [4]; 13.2 nM in data set [5]; 13.3 nM in data set [6]. Moreover, in data set [2] (oral), the LD50 is 239 mg/kg.
